Data set [1] is described as follows: amount of azithromycin dihydrate dissolved in coating solution, indicated by pH. The format is physicochemical. The conditions noted are these: aqueous hydroxypropyl cellulose coating solution, pH 9. On the procedure:
Multiparticulates were made by a spray-coating process using the following procedure. First, 30 g of the low reactivity carrier hydroxypropyl cellulose containing virtually no acid or ester substituents (KLUCEL EF from Aqualon, Inc. of Wilmington, Del.) were dissolved into 800 g of distilled water. To this solution was then added 119.6 g of crystalline azithromycin dihydrate having a degree of crystallinity of >99%.

The conditions of data set [2]: distilled water at pH 6.9; cited from earlier work.

A word on the solubility: it is the dissolved amount per volume that the medium holds. In the case of `CC[C@H]1OC(=O)[C@H](C)[C@@H](O[C@H]2C[C@@](C)(OC)[C@@H](O)[C@H](C)O2)[C@H](C)[C@@H](O[C@@H]2O[C@H](C)C[C@H](N(C)C)[C@H]2O)[C@](C)(O)C[C@@H](C)CN(C)[C@H](C)[C@@H](O)[C@]1(C)O` [azithromycin dihydrate, 9a-aza-9a-methyl-9-deoxo-9a-homoerythromycin A], the “amount of azithromycin dihydrate dissolved in the solution” value in data set [1] was “less than 1 mg/mL”. The solubility in data set [2] is 1.1 mg/mL.

(Values after patent US20050123616A1, “Azithromycin multiparticulate dosage forms by liquid-based processes” (Pfizer Inc, priority 2003, published 2005).)
